8 compounds from patent US6509344B1, “Indenoisoquinolines as antineoplastic agents” (The United States of America as represented by the …, priority 1998, dated 2003) can be followed below.

Like-named read-outs stand apart in the source and are kept apart here.

For data set [1], the system named is DU-145. Put plainly: NCI human cancer cell line screen (COMPARE screening), Prostate DU-145. Type of data set: cell-based. The text has this:
(§1) Considering the diversity of cancer in terms of cell type, morphology, growth rate and other cellular characteristics, the U.S. National Cancer Institute (NCI) has developed a “disease-oriented” approach to anticancer activity screening (M. R. Boyd, in “Principle of Practice of Oncology” […]. Rosenberg (Eds.) Vol. 3, PPO Update, No. 10, 1989). This in vitro prescreening system is based on the measurement of anticancer cytotoxicity against human cancer cell line panels consisting of approximately 60 cell lines of major human cancers (including leukemia and slower growing tumor cells such as lung, colon, breast, skin, kidney, etc.) and is referred hereinafter as “COMPARE” screening. An important advantage of the new in vitro screening panels is the opportunity to facilitate identification of compounds that are selectively more cytotoxic to cells of certain types of cancers, thus increasing the ability to select compounds for further study with respect to specific diseases. The indenoisoquinolines were examined for antiproliferative activity against the human cancer cell lines in the National Cancer Institute screen (COMPARE screening), in which the activity of each compound was evaluated with approximately […] different cancer cell lines of diverse tumor origins.

The test system of data set [2] is HOP-62. Put plainly: NCI human cancer cell line screen (COMPARE screening), Lung HOP-62. Type of data set: cell-based.
Excerpt: as §1

In data set [3] the test system is OVCAR-3. Put plainly: NCI human cancer cell line screen (COMPARE screening), Ovarian OVCAR-3. The data set is classed as cell-based.
Excerpt: as §1

Data set [4] has as its system MDA-MB-435. The data set can be described thus: NCI human cancer cell line screen (COMPARE screening), Breast MDA-MB-435. The data set is classed as cell-based.
Excerpt: as §1

In data set [5] the target is T1, topoisomerase I (Homo sapiens, UniProt P11387).
T1 sequence (P11387 1-765): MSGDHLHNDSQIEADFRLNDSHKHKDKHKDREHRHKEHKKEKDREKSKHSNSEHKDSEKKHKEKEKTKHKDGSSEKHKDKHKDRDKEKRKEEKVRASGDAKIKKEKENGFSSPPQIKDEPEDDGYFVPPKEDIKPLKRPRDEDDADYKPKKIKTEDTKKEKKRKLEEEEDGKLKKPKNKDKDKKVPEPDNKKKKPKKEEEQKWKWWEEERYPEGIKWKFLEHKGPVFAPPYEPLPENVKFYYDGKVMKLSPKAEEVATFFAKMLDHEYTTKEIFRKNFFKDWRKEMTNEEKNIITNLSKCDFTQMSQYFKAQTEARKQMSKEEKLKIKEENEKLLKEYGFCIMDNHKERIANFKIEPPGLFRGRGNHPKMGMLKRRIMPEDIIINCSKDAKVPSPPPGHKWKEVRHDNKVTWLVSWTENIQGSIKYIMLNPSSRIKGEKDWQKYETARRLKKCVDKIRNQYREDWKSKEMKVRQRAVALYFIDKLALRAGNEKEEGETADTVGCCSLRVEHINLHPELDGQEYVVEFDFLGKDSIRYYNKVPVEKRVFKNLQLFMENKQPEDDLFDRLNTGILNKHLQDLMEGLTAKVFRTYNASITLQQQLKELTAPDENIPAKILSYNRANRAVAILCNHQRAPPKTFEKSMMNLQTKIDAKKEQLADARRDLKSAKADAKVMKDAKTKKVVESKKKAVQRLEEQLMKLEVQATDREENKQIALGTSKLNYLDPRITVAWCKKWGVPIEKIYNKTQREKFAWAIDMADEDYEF
Put plainly: Topoisomerase I-mediated DNA cleavage assay (3'-end-labeled 161 bp pBluescript SK(-) fragment). Type of data set: biochemical. The note with it: relative to the activity of 1 μM camptothecin. The procedure: Topoisomerase I-Mediated DNA Cleavage Reactions Using 3′-End-labeled 161 BP Plasmid DNA
The 161 bp fragment from pBluescript SK(−) phagemid DNA (Stratagene, La Jolla, Calif.) was cleaved with the restriction endonuclease Pvu II and Hind III (New England Biolabs, Beverly, Mass.) in supplied NE buffer 2 (10 μL reactions) for 1 h at 37° C., separated by electrophoresis in a 1% agarose gel made in 1×TBE buffer. The 161 bp fragment was eluted from the gel slice (centrilutor by Amicon) and concentrated in a centricon 50 centrifugal concentrator (Amicon, Beverly, Mass.). Approximately 200 ng of the fragment was 3′-end-labeled at the Hind III site by fill-in reaction with [alpha-^32P]-dCTP and 0.5 mM dATP, dGTP, and dTTP, in React 2 buffer (50 mM Tris-HCl, pH 8.0, […], 50 mM NaCl) with 0.5 units of DNA polymerase I (Klenow fragment). Labeling reactions were followed by phenol-chloroform extraction and ethanol precipitation. The resulting 161 bp 3′-endlabeled DNA fragment was resuspended in water. Aliquots (approximately 50,000 dpm/reaction) were incubated with topoisomerase I at 30° C. for 15 min in the presence of the indicated drug. Reactions were terminated by adding 0.5% SDS. After ethanol precipitation, the samples were resuspended in loading buffer (80% formamide, 10 mM sodium hydroxide, 1 mM sodium EDTA, 0.1% xylene cyanol, and 0.1% bromophenol blue, pH 8.0), and separated in a denaturing gel (16% polyacrylamide, 7 M urea) run at 51° C. The gel was dried and visualized by using a Phosphoimager and ImageQuant software (Molecular Dynamics, Sunnyvale, Calif.).

Data set [6] concerns UACC-62. The data set can be described thus: NCI human cancer cell line screen (COMPARE screening), Melanoma UACC-62. Type of data set: cell-based.
Excerpt: as §1

For data set [7], the system named is HCT-116. Put plainly: NCI human cancer cell line screen (COMPARE screening), Colon HCT-116. The data set is classed as cell-based.
Excerpt: as §1

Data set [8] has as its system approximately 55 different cancer cell lines of diverse tumor origins. The data set can be described thus: NCI screen mean graph midpoint over all cell lines tested. Type of data set: cell-based, human. The following applies: for IC50: average GI50 for all cell lines tested (approximately 55), values outside test range taken as 10^-8 or 10^-4 molar, read-out: MGM (mean graph midpoint).
Excerpt: as §1

In data set [9] the test system is human topoisomerase II. Put plainly: Topoisomerase II-mediated DNA cleavage assay (5'-end-labeled human c-myc DNA). The data set is classed as biochemical.
For data set [10], the system named is SF-539. The data set can be described thus: NCI human cancer cell line screen (COMPARE screening), CNS SF-539. The data set is classed as cell-based.
Excerpt: as §1

Data set [11] relates to SN12C. Put plainly: NCI human cancer cell line screen (COMPARE screening), Renal SN12C. The data set is classed as cell-based.
Excerpt: as §1

Setting [12] is: Homo sapiens, DU-145, concentration causing 50% growth inhibition, read-out: Cytotoxicity (G150 in μM) Prostate DU-145.
Setting [13] is: Homo sapiens, HOP-62, concentration causing 50% growth inhibition, read-out: Cytotoxicity (G150 in μM) Lung HOP-62.
The mark [14] stands for this setting: Homo sapiens, OVCAR-3, concentration causing 50% growth inhibition, read-out: Cytotoxicity (G150 in μM) Ovarian OVCAR-3.
[15] abbreviates: Homo sapiens, MDA-MB-435, concentration causing 50% growth inhibition, read-out: Cytotoxicity (G150 in μM) Breast MDA-MB-435.
Setting [16] is: Homo sapiens, UACC-62, concentration causing 50% growth inhibition, read-out: Cytotoxicity (G150 in μM) Melanoma UACC-62.
Setting [17] is: Homo sapiens, HCT-116, concentration causing 50% growth inhibition, read-out: Cytotoxicity (G150 in μM) Colon HCT-116.
The mark [18] stands for this setting: Homo sapiens, SF-539, concentration causing 50% growth inhibition, read-out: Cytotoxicity (G150 in μM) CNS SF-539.
[19] abbreviates: Homo sapiens, SN12C, concentration causing 50% growth inhibition, read-out: Cytotoxicity (G150 in μM) Renal SN12C.

Consider `CCN1C(=O)c2cc(OC)c(OC)cc2[C@H]2C(=O)c3cc4c(cc3[C@H]21)OCO4` (relative stereo) [Compound 21, cis-6-Ethyl-5,6,12,13-tetrahydro-2,3-dimethoxy-5,11-dioxo-8,9-(methylene-dioxy)-11H-indeno[1,2-c]isoquinoline], for which the IC50 in [1] worked out at 0.42 µM; in [2], 0.29 µM; in data set [3], 0.44 µM; in data set [4] it was 0.45 µM; in data set [6], 0.18 µM; in data set [7], 0.29 µM. Moreover, the IC50 in data set [8] is 0.81 µM. Further, the “Top 1 Cleavage” value in data set [5] is recorded as “± (those compounds having less than 20% of the activity of 1 μM camptothecin)”. Further, the “cytotoxicity (MGM) relative to lead compound 1” value in [8] is on record as “lower MGM than the lead compound 1”. For the same compound, the “induction of topoisomerase II cleavage complexes” value in [9] is “no effect”.

For `C=CCN1C(=O)c2cc(OC)c(OC)cc2[C@H]2C(=O)c3cc4c(cc3[C@H]21)OCO4` (relative stereo) [Compound 22, cis-6-Allyl-5,6,12,13-tetrahydro-2,3-dimethoxy-5,11-dioxo-8,9-(methylenedioxy)-(11H)indeno[1,2-c]isoquinoline], the IC50 in data set [1] turned out to be 0.77 µM; in [2], 0.36 µM; in data set [3] it was 1.7 µM; in [4], 1.4 µM; in [6], 0.38 µM; in [7], 0.34 µM. In [8], the IC50 came to 0.98 µM. Moreover, the “Top 1 Cleavage” value in data set [5] came to 0. Further, the “cytotoxicity (MGM) relative to lead compound 1” value in [8] was “lower MGM than the lead compound 1”. The “induction of topoisomerase II cleavage complexes” value in data set [9] is listed as “no effect”.

For the compound `O=C1c2ccccc2-c2oc(=O)c3ccccc3c21` [Compound 2, benz[d]indeno[1,2-b]pyran-5,11-dione], the IC50 in data set [1] (setting [12]), in data set [2] (setting [13]), in data set [3] (setting [14]), in [4] (setting [15]), in data set [6] (setting [16]) and in data set [7] (setting [17]) was > 100 µM throughout. For the same compound, the figures for the IC50 in data set [10] (setting [18]), in data set [11] (setting [19]) and in [8] (Homo sapiens) were > 100 µM, > 100 µM and 85 µM, respectively. For the same compound, the “Top 1 Cleavage” value in data set [5] is on record as 0.

For the compound `O=C1c2ccccc2-c2c1c1ccccc1c(=O)n2C1CC1` [Compound 5, 6-Cyclopropyl-5,6-dihydro-5,11-diketo-11H-indeno[1,2-c]isoquinoline], the IC50 in data set [1] (setting [12]) is > 100 µM; in data set [2] (setting [13]), 61 µM; in data set [3] (setting [14]) it was > 100 µM; in data set [4] (setting [15]), > 100 µM; in data set [6] (setting [16]), 84 µM; in [7] (setting [17]), > 100 µM. The IC50 in data set [10] (setting [18]) was > 100 µM; in data set [11] (setting [19]), > 100 µM; in [8] (Homo sapiens) it was 98 µM. In data set [5], the “Top 1 Cleavage” value turned out to be 0.

For the compound `COc1ccc(Cn2c3c(c4cc(OC)c(OC)cc4c2=O)C(=O)c2cc4c(cc2-3)OCO4)cc1` [Compound 13f, 6-(p-Anisyl)-2,3-dimethoxy-5,6-dihydro-5,11-diketo-8,9-methylenedioxy-11H-indeno[1,2-c]isoquinoline], the IC50 in data set [1] (setting [12]) was 76 µM; in data set [2] (setting [13]), 20 µM; in [3] (setting [14]), > 100 µM; in data set [4] (setting [15]) it was > 100 µM; in data set [6] (setting [16]) it was > 100 µM; in [7] (setting [17]) it was > 100 µM. Besides, the IC50 in data set [10] (setting [18]) is > 100 µM; in data set [11] (setting [19]), > 100 µM; in [8] (Homo sapiens) it was 70 µM. Further, the “Top 1 Cleavage” value in [5] came to 0.

Turning to `Cn1c2c(c3ccccc3c1=O)C(=O)c1cc(OCc3ccccc3)c(OCc3ccccc3)cc1-2` [Compound 13g, 8,9-Dibenzyloxy-5,6-dihydro-5,11-diketo-6-methyl-11H-indeno[1,2-c]isoquinoline], the IC50 was > 100 µM in data set [1] (setting [12]); 72 µM in [2] (setting [13]); > 100 µM in data set [3] (setting [14]); > 100 µM in data set [4] (setting [15]); 93 µM in [6] (setting [16]); > 100 µM in [7] (setting [17]). Also, the IC50 in data set [10] (setting [18]) is > 100 µM; in data set [11] (setting [19]), 88 µM; in data set [8] (Homo sapiens) it was 82 µM. Further, the “Top 1 Cleavage” value in [5] amounted to 0.

As for `COc1cc2c3c(n(C)c(=O)c2cc1OC)-c1cc(OCc2ccccc2)c(OCc2ccccc2)cc1C3=O` [Compound 13h, 8,9-Dibenzyloxy-5,6-dihydro-5,11-diketo-6-methyl-2,3-dimethoxy-11H-indeno[1,2-c]isoquinoline], the IC50 in data set [1] (setting [12]) is > 100 µM; in data set [2] (setting [13]), 46 µM; in [3] (setting [14]), 58 µM; in data set [4] (setting [15]), > 100 µM; in data set [6] (setting [16]), > 100 µM; in data set [7] (setting [17]), 80 µM. In addition, the IC50 in data set [10] (setting [18]) was 39 µM; in [11] (setting [19]), > 100 µM; in data set [8] (Homo sapiens), 72 µM. The “Top 1 Cleavage” value in data set [5] turned out to be 0.

On to `COc1cc2c3c(n(C)c(=O)c2cc1OC)-c1cc(OC)c(OC)c(OC)c1C3=O` [Compound 13i, 5,6-Dihydro-5,11-diketo-6methyl-2,3,8,9,10-pentamethoxy-11H-indeno[1,c]isoquinoline], for which the IC50 in data set [1] was > 100 µM; in data set [2] it was > 100 µM; in [3], > 100 µM; in data set [4] it was > 100 µM; in [6], 55 µM; in data set [7], > 100 µM. Moreover, the IC50 is > 100 µM in [10], > 100 µM in data set [11] and 95 µM in data set [8]. Moreover, the “Top 1 Cleavage” value in data set [5] is reported as 0.
